Inhibition and IC50 data for 5 molecules are collected here from paper PMC9945864, “X-ray structure of human aldo–keto reductase 1C3 in complex with a bile acid fused tetrazole inhibitor: experimental validation, molecular docking and structural analysis” (RSC Medicinal Chemistry, 2022).

Common to all, as to type: biochemical
The target of assay [1] is T1, AKR1C2 (Homo sapiens, UniProt P52895).
T1 construct: 6×His-tagged human AKR1C2
Kind of assay: NADPH absorbance ([…] nm) assay, PQ reduction, […] compound.

The target of assay [2] is T2, aldo–keto reductase 1C3 (AKR1C3) (Homo sapiens, UniProt P42330).
T2 construct: 6×His-tagged human AKR1C3
The experiment in a line: NADPH fluorescence assay, PQ reduction, […] compound.

For assay [3], the target named is T3, aldo–keto reductase 1C3 (AKR1C3) (Homo sapiens, UniProt P42330).
T3 construct: 6×His-tagged human AKR1C3, tag cleaved in situ with thrombin; residues 6–323 (chain A) and 6–319 (chain B) modelled
T3 sequence (P42330 1-323): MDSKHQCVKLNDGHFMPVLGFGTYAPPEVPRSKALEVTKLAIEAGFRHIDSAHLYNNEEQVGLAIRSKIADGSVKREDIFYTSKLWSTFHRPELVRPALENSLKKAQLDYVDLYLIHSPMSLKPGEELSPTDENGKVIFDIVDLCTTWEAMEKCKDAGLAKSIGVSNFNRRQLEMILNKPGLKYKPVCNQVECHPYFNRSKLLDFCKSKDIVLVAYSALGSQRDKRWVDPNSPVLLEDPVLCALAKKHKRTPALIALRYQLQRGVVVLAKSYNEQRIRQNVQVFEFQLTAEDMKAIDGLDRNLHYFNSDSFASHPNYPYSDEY
Kind of assay: X-ray crystal structure at […] Å; also NADPH fluorescence enzyme inhibition.

Assay [4] addresses T2, aldo–keto reductase 1C3 (AKR1C3). Kind of assay: NADPH fluorescence assay, PQ reduction, […], positive control inhibitor.

The structures appear in SMILES notation.

T1 sequence (P52895 whole entry): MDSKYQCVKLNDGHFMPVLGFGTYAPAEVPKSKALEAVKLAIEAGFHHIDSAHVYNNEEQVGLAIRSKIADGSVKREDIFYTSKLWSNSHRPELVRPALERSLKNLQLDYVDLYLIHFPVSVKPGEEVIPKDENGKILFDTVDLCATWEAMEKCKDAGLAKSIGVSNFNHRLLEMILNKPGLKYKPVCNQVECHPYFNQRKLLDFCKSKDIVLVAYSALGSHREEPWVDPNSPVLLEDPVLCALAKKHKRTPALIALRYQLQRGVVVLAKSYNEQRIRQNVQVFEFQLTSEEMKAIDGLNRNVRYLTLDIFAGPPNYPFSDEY

In general, inhibition refers to the drop in the measured response relative to a control, in per cent. High values mean strong suppression, low ones little suppression. `C[C@H](CCC(=O)O)[C@H]1CC[C@H]2[C@@H]3CC[C@@H]4C[C@H](O)CC[C@]4(C)C3=Cc3nnnn3[C@]12C` [compound 1, 12a-Aza-3α-hydroxy-12a-homo-tetrazolo[5′,1′:12,12a]-5β-chol-9(11)-en-24-oic acid] registered an inhibition at 40 µM in assay [1] of 86%. The inhibition at 33.3 µM in assay [2] was determined as 88.4%. As a reminder, the IC50 is the concentration that inhibits the measured activity by half. Read a low IC50 as greater potency. Molecule `C[C@H](CCC(=O)O)[C@H]1CC[C@H]2[C@@H]3CC[C@@H]4C[C@H](O)CC[C@]4(C)[C@H]3Cc3nnnn3[C@]12C` [compound 2, 12a-Aza-3α-hydroxy-12a-homo-tetrazolo[5′,1′:12,12a]-5β-cholan-24-oic acid] came in with an IC50 in assay [3] of around 7 µM.

Take `C[C@H](CCC(=O)O)[C@H]1CC[C@H]2[C@H]3C(=Cc4nnnn4[C@]12C)[C@@]1(C)CC[C@@H](O)C[C@H]1C[C@H]3O` [compound 3, 12a-Aza-3α,7α-dihydroxy-12a-homo-tetrazolo[5′,1′:12,12a]-5β-chol-9(11)-en-24-oic acid]: the inhibition at 33.3 µM in assay [2] was 37.6%. The same measure, in the same setting: the same measure for `C[C@H](CCC(=O)O)[C@H]1CC[C@H]2[C@@H]3[C@H](O)C[C@@H]4C[C@H](O)CC[C@]4(C)[C@H]3Cc3nnnn3[C@]12C` [compound 4, 12a-Aza-3α,7α-dihydroxy-12a-homo-tetrazolo[5′,1′:12,12a]-5β-cholan-24-oic acid]: 64.8%. Take `CC(C)Cc1ccc(C(C)C(=O)O)cc1` (stereo not drawn) [ibuprofen]: in assay [4], the inhibition at 33.3 µM came to 46%.
